Results: patent US9884130B2, “Compositions for delivery of oral comfort sensations” (The Procter & Gamble Company, priority 2013, dated 2018)
Structures can show the parent of a compound that is named as a salt. Where two headings read alike, the source gives them in different places.

Molecular target: T1, mouse TREK-1 (mTREK-1t) (Mus musculus, UniProt P97438)
T1 construct: (mTREK-1t) by Capital Biosciences (Rockville, Md.)
T1 sequence (P97438 with tags, fused parts or gaps limits assumed): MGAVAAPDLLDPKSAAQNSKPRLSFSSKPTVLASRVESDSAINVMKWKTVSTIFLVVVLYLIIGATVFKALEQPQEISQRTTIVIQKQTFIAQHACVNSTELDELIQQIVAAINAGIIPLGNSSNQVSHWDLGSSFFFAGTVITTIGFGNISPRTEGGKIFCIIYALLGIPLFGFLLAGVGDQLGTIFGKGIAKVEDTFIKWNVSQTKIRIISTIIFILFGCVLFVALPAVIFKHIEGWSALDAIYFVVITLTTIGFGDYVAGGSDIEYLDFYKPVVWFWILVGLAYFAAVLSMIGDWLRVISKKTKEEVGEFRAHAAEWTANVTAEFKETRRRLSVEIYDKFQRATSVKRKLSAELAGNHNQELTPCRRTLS
Assay: FLIPR membrane potential assay in HEK-293 cells stably transfected with mTREK-1t
Type: cell-based

[1] = HEK293, read-out: Fluorescence per Sample concentration (percent activity relative to potassium nitrate)
[2] = HEK293, sample concentration 50 μM, relative to 50 mM potassium nitrate, read-out: Fluorescence per Sample concentration (percent activity relative to potassium nitrate)
[3] = HEK293, sample concentration 100 μM, relative to 50 mM potassium nitrate, read-out: Fluorescence per Sample concentration (percent activity relative to potassium nitrate)
[4] = HEK293, sample concentration 200 μM, relative to 50 mM potassium nitrate, read-out: Fluorescence per Sample concentration (percent activity relative to potassium nitrate)
[5] = HEK293, Sample Conc. 0.0005%, read-out: Activity Level (percentage of activity relative to 100% with 50 mM potassium nitrate)
[6] = HEK293, Sample Conc. 0.0010%, read-out: Activity Level (percentage of activity relative to 100% with 50 mM potassium nitrate)
[7] = HEK293, Sample Conc. 0.0021%, read-out: Activity Level (percentage of activity relative to 100% with 50 mM potassium nitrate)
[8] = HEK293, Sample Conc. 0.0042%, read-out: Activity Level (percentage of activity relative to 100% with 50 mM potassium nitrate)
[9] = HEK293, Sample Conc. 0.0083%, read-out: Activity Level (percentage of activity relative to 100% with 50 mM potassium nitrate)
[10] = HEK293, Sample Conc. 0.0167%, read-out: Activity Level (percentage of activity relative to 100% with 50 mM potassium nitrate)
[11] = HEK293, Sample Conc. 0.0330%, read-out: Activity Level (percentage of activity relative to 100% with 50 mM potassium nitrate)
[12] = HEK293, read-out: Activity Level (percentage of activity relative to 100% with 50 mM potassium nitrate)

CC=Cc1ccc(OC)c(OC)c1 [1,2-Dimethoxy 4-propenyl benzene]
activation at 50 µM [1]: 5.19%
activation at 100 µM [1]: 10.5%
activation at 200 µM [1]: 29.1%

CC(C)CC=C(C=O)C(C)C [2-Isopropyl-5-methyl-2-hexenal]
activation at 50 µM [2]: 11.1%
activation at 100 µM [3]: 21.1%
activation at 200 µM [4]: 46.3%
activation at 400 µM (HEK293, sample concentration 400 μM, relative to 50 mM potassium nitrate, read-out: Fluorescence per Sample concentration (percent activity relative to potassium nitrate)): ≥ 50%

Oc1ccccc1-c1ccccc1 [2-Phenylphenol]
activation at 50 µM [1]: 0.35%
activation at 100 µM [1]: 0.85%
activation at 200 µM [1]: 12.9%
activation at 400 µM [1]: ≥ 50%

CCCCC(CC)CCC(=O)O (centres unmarked) [4-Ethyloctanoic Acid]
activation at 50 µM [2]: 31%
activation at 100 µM [3]: 44.6%
activation at 200 µM [4]: 77.3%

CC(C)C=C(C=O)c1ccccc1 [4-Methyl-2-phenyl-2 Pentenal]
activation at 50 µM [2]: 16.5%
activation at 100 µM [3]: 27.1%
activation at 200 µM [4]: 52.1%

CCCCCC(C)CCC(=O)O (centres unmarked) [4-Methylnonanoic acid]
activation at 50 µM [2]: 24.8%
activation at 100 µM [3]: 38.5%
activation at 200 µM [4]: 79.9%

CCCCOC(=O)CC(CC(=O)OCCCC)(OC(C)=O)C(=O)OCCCC [Acetyl Tributyl Citrate]
activation at 0.0005 % [5]: 2.69%
activation at 0.001 % [6]: 0.48%
activation at 0.0021 % [7]: 3.06%
activation at 0.0042 % [8]: 2.5%
activation at 0.0083 % [9]: 5.89%
activation at 0.0167 % [10]: 14.1%
activation at 0.033 % [11]: 24%

CCCCC(CC)COP(=O)(O)OCC(CC)CCCC (centres unmarked) [Bis (2-ethyl hexyl) Phosphate]
activity on TREK-1 compared with potassium nitrate (0.033% Sample concentration vs 50 mM (0.505%) potassium nitrate): higher activity on TREK-1 than potassium nitrate
Activity Level (percentage of activity relative to 100% with 50 mM potassium nitrate) (Sample Conc. 0.0005%): 5.92%
Activity Level (percentage of activity relative to 100% with 50 mM potassium nitrate) (Sample Conc. 0.0010%): 13.39%
Activity Level (percentage of activity relative to 100% with 50 mM potassium nitrate) (Sample Conc. 0.0021%): 20.49%
Activity Level (percentage of activity relative to 100% with 50 mM potassium nitrate) (Sample Conc. 0.0042%): 26.65%
Activity Level (percentage of activity relative to 100% with 50 mM potassium nitrate) (Sample Conc. 0.0083%): 43.09%
Activity Level (percentage of activity relative to 100% with 50 mM potassium nitrate) (Sample Conc. 0.0167%): 84.83%
Activity Level (percentage of activity relative to 100% with 50 mM potassium nitrate) (Sample Conc. 0.0330%): 109.75%

CC(C)OC(=O)CCCCC(=O)OC(C)C [Diisopropyl Adipate]
activation at 0.0005 % [5]: 1.31%
activation at 0.001 % [6]: 1.38%
activation at 0.0021 % [7]: 3.43%
activation at 0.0042 % [8]: 3.56%
activation at 0.0083 % [9]: 6.59%
activation at 0.0167 % [10]: 14.8%
activation at 0.033 % [11]: 30.4%

CCCCCCCCOC(=O)CCCCC(=O)OCCCCCCCC [Dioctyl Adipate]
activity on TREK-1 compared with potassium nitrate: higher activity on TREK-1 than potassium nitrate
activation at 0.0005 % [12]: 8.93%
activation at 0.001 % [12]: 13.7%
activation at 0.0021 % [12]: 18.1%
activation at 0.0042 % [12]: 22.9%
activation at 0.0083 % [12]: 38.9%
activation at 0.0167 % [12]: > 70%
activation at 0.033 % [12]: 132%
